From ChEMBL document CHEMBL1150842, “Two new fatty diterpenoids from Salvia miltiorrhiza” (J Nat Prod, 2001)

Columns and labels:
Type in all cases: functional, cell-based
Settings in all cases: Oryctolagus cuniculus
[1] = Antiplatelet activity against washed rabbit platelet assessed as inhibition of collagen-induced platelet aggregation preincubated for 3 mins before collagen challenge
[2] = Antiplatelet activity against washed rabbit platelet assessed as inhibition of thrombin-induced platelet aggregation preincubated for 3 mins before thrombin challenge
[3] = Antiplatelet activity against washed rabbit platelet assessed as inhibition of arachidonic acid-induced platelet aggregation preincubated for 3 mins before arachidonic acid challenge

CCCCCCCC/C=C\CCCCCCCC(=O)OCC(C)C1=C(O)C(=O)c2c(ccc3c2CCCC3(C)C)C1=O (configuration not stated)
IC50 [1]: 50.4 µM
IC50 [2]: > 100 µM
IC50 [3]: 5.1 µM

CCCCCCCC/C=C\CCCCCCCC(=O)OCC(C)C1=C(O)C(=O)c2c(ccc3c(C)cccc23)C1=O (configuration not stated) [16-O-OLEOYL DANSHENXINKUN A]
IC50 [1]: 60.5 µM
IC50 [2]: > 100 µM
IC50 [3]: 25.5 µM

CC(=O)Oc1ccccc1C(=O)O [ASPIRIN]
IC50 [3]: 27 µM
